The source of these data is PubChem BioAssay AID588398 (Broad Institute, 2011).

Inconclusive results are not listed.

This experiment in a line: LMP1 TES1 pathway selectivity over dsRED control – imaging, HEK293T, dual-color eGFP/dsRED, cherry-picks, selectivity assay for LMP1 NF-kB inhibitor project, dose response (AID 588398). To be noted: HEK293T LMP1 TES1-eGFP reporter, 48 h, dsRED channel counter-screen. (In general: Counterscreens check selectivity or assay interference.)
Broadly, the AC50 is the midpoint of the concentration-response curve, whichever way the signal moves. The low end stands for greater potency, the high end for weaker potency. `CC(=NNC(=S)N1CCCC1)c1ccccn1`: the AC50 worked out at 17.8 µM.

The molecule `CC(=NNC(=S)N1CC2CCC(CC2)C1)c1nccs1` displayed an AC50 of 4.15 µM.

`CCn1c2ccccc2c2cc(/C=N/n3c(-c4cc(C)[nH]n4)n[nH]c3=S)ccc21` had an AC50 of 0.862 µM.

The molecule `O=[N+]([O-])c1ccc2ncnc(N3CCN(Cc4ccc5c(c4)OCO5)CC3)c2c1` registered an AC50 of 2.87 µM.

`COC(=O)[C@@]1(C)[C@H]2C(=O)N(Cc3ccccc3)C(=O)[C@H]2[C@H]2CN=C(SCc3ccc(Cl)cc3)N21` displayed an AC50 of 2.41 µM.

The molecule `COc1cccc(/C=N/Nc2ncnc(Cl)c2N)c1O` gave an AC50 of 3.08 µM.

Regarding `CC[C@]1(C(=O)OC)[C@H]2C(=O)N(Cc3ccccc3)C(=O)[C@H]2[C@H]2CN=C(SCc3ccc(Cl)cc3)N21`, the AC50 is 1.32 µM.

Molecule `O=Cc1ccc(-c2cccs2)s1` returned an AC50 of 2.71 µM.

Turning to `CN1C(=O)N(C)c2ccc(C=O)c3cccc1c23`, the AC50 stood at 12.9 µM.

Molecule `CC(=O)NC(c1ccc(Cl)cc1Cl)c1ccc2cccnc2c1O` (centres undefined) showed an AC50 of 5.82 µM.

Molecule `C/C(=N/NC(=O)c1ccc(C(C)(C)C)cc1)c1ccccn1` showed an AC50 of 14.3 µM.

Consider `COc1cccc(/C=N/NC(=O)c2[nH]nc3c2CCc2ccccc2-3)c1O`, for which the AC50 was determined as 5.87 µM.

On to `OCCCNc1nccc(-c2cc(Nc3cccc(Cl)c3)ncn2)n1`, for which the AC50 was determined as 4.72 µM.

As to `O=C(N/N=C/c1sc2ccccc2c1O)c1cccc2ccccc12`, the AC50 came to 4.27 µM.

In the case of `CC(=O)NC(c1ccc(Cl)cc1)c1ccc2cccnc2c1O` (centres undefined), the AC50 came out at 4.14 µM.

With `Oc1ccc(C=NNC(=S)Nc2ccccc2)nc1`, the AC50 is 11.1 µM.

In the case of `O=c1c(O)c(-c2ccc(O)c(O)c2)oc2cc(O)cc(O)c12`, the AC50 was more than 19.5 µM.

`O=C(N/N=C/c1c(O)ccc2ccccc12)c1cccnc1` had an AC50 of 4.3 µM.

As for `O=C(Nc1ccc(C(=O)N2CCOCC2)cc1)Nc1cccc(C(F)(F)F)c1`, the AC50 amounted to 0.966 µM.

`CCCCC(=O)NC(c1ccc(OC)c(OC)c1)c1ccc2cccnc2c1O` (centres undefined): the AC50 came out at 13.6 µM.

On to `Cc1nnc(SCC(=O)N2CCC(c3noc4ccc(F)cc34)CC2)s1`, for which the AC50 was 1.69 µM.

As for `CCN(CC)c1ccc(/C=N/NC(=O)c2ccc3nc[nH]c3c2)c(O)c1`, the AC50 came to 16.9 µM.

Consider `CCCC(=O)NC(c1ccc(C(C)C)cc1)c1ccc2cccnc2c1O` (centres undefined), for which the AC50 came out at 4.16 µM.

For the molecule `N#CC(C#N)=NNc1ccc(-n2ccc(C(F)(F)F)n2)cc1`, the AC50 turned out to be 6.47 µM.

The molecule `CCC(=O)NC(c1cc(Cl)c2cccnc2c1O)C1CC1` (centres undefined) had an AC50 of 13 µM.

In turn, `C#CCN(C[C@@H]1[C@@H](OC(=O)NCc2ccccc2F)[C@@H](OC(=O)NCc2ccccc2F)Cn2c(=O)ccc(=O)n21)S(=O)(=O)c1ccc(C)cc1` came in with an AC50 of 3.9 µM.

`CCC(C)Nc1nc(-c2ccccn2)nc2ccccc12` (centres undefined) showed an AC50 of 8.45 µM.

`Cc1cc(C)nc(N/C(=N\S(=O)(=O)Cc2ccccc2)Nc2ccccc2Br)n1` displayed an AC50 of 18.1 µM.

Regarding `CC1Cc2ccccc2N1c1ncnc(N)c1[N+](=O)[O-]` (centres undefined), the AC50 amounted to 0.411 µM.

On to `CC(=NNC(=S)Nc1ccccc1Cl)c1ccccn1`, for which the AC50 is 1.37 µM.

In turn, `Cc1nn(-c2ccccc2)c(Cl)c1C1C(C#N)=C(N)Oc2n[nH]c(C)c21` (centres undefined) yielded an AC50 of 11.5 µM.

For the molecule `CC[C@]1(C(=O)OC)[C@H]2C(=O)N(Cc3ccccc3)C(=O)[C@H]2[C@H]2CN=C(SCc3ccc(C#N)cc3)N21`, the AC50 was 2.82 µM.

Regarding `COc1ccc(-c2csc3ncnc(Sc4nnnn4C)c23)cc1`, the AC50 came to 10.5 µM.

The molecule `CCOc1ccc(/C=C/[N+](=O)[O-])c2ccccc12` displayed an AC50 of 4.38 µM.

`NC(=S)NN=Cc1nccc2c(C(F)(F)F)cccc12`: the AC50 turned out to be 4.06 µM.

With `O=C(N/N=C/c1cc2c3c(c1O)CCCN3CCC2)c1ccccc1O`, the AC50 amounted to 8.25 µM.

The molecule `Cc1cc(N2CCOCC2)c2c(N)c(Br)cc(C)c2n1` registered an AC50 of 3.34 µM.

In the case of `Cc1cc(C)n(-c2ccc(NN=C(C#N)C#N)cc2)n1`, the AC50 turned out to be 5.01 µM.

For `C=CCn1c(C)c(C(C)=O)c(N2CCN(C(c3ccccc3)c3ccccc3)CC2)nc1=S`, the AC50 was more than 19.5 µM.

Molecule `CC1CC(C)C(=O)C(C(CC2CC(=O)NC(=O)C2)OC(=O)CC(=O)c2ccccc2)C1` (centres undefined) displayed an AC50 of 5.02 µM.

Molecule `Cc1nn(-c2ccccc2)c(Cl)c1C(=O)N1CCN(c2ncnc3c2cnn3-c2ccccc2)CC1` registered an AC50 of 12.9 µM.

In the case of `O=C(NN=Cc1ccc(N(CCCl)CCCl)cc1Cl)c1cccnc1`, the AC50 amounted to 1.58 µM.

`O=C(N/N=C/c1ccc(O)cc1O)c1ccc(CN2C(=O)c3cccc4cccc2c34)cc1`: the AC50 was determined as 12.7 µM.

In turn, `CCC(=O)NC(c1ccc(Cl)cc1Cl)c1ccc2cccnc2c1O` (centres undefined) gave an AC50 of 4.23 µM.

The molecule `N#CC(C#N)c1ccnc2ccccc12` came in with an AC50 of 6.14 µM.

`CCN1CCN(Cc2ccc(NC(=O)c3ccc(C)c(NC(=O)c4ccno4)c3)cc2C(F)(F)F)CC1` returned an AC50 of 0.0579 µM.

The molecule `CN1CCN(/N=C/c2ccc(N(c3ccccc3)c3ccccc3)cc2)CC1` registered an AC50 of 0.505 µM.

Regarding `C[n+]1c2n(c3ccccc31)N=C(c1cc(C(C)(C)C)c(O)c(C(C)(C)C)c1)CS2`, the AC50 came to 10.8 µM.

In turn, `COc1ccc(N/N=C/c2c(C(=O)O)ccc3ccccc23)cc1` displayed an AC50 of 12.4 µM.
